Like-named read-outs stand apart in the source and are kept apart here.
How the values were obtained:
A1 adenosine receptor [1] = molecular target: T1, A1 adenosine receptor (Mesocricetus auratus, UniProt A0A1U8BVR4); test: cAMP assay (SPA) in DDT1 cells, forskolin-induced cAMP; type: cell-based, hamster; conditions: normalized to full agonist CPA, 5 μM forskolin, 50 μM rolipram; for Emax: 10 min
T1 construct: endogenous in cells; host or cells: DDT1 (DDT1 MF-2) hamster vas deferens smooth muscle cells
T1 sequence (A0A1U8BVR4 1-326): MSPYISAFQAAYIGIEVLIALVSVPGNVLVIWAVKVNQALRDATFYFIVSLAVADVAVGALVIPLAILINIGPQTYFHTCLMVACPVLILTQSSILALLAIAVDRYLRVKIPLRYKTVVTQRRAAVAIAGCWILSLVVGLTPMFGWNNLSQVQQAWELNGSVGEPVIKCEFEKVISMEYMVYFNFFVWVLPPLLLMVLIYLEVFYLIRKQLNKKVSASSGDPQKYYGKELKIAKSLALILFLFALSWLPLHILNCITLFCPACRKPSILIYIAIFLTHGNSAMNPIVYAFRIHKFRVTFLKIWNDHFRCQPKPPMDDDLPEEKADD
Protocol: A scintillation proximity assay (SPA) using rabbit antibodies directed at cAMP using an added tracer of adenosine 3′,5′-cyclic phosphoric acid 2′-O-succinyl-3-[^125I]iodotyrosine methyl ester and fluoromicrospheres containing anti-rabbit specific antibodies as described by Amersham Pharmacia Biotech (Biotrak cellular communication assays). Briefly, DDT1 cells were cultured in clear bottomed 96 well microtiter plates with opaque wells at concentrations between 10^4 to 10^6 cells per well in 40 μl of HBSS at 37° C. (5% CO2 and 95% humidity). The partial or full A1 agonists (5 μl) of this invention were incubated at various concentrations with the DDT1 cells in the presence of rolipram (50 μM), and 5 μM forskolin for 10 min at 37° C. The cells were immediately lysed by treatment 5 μl of 10% dodecyltrirnethylammonium bromide followed by shaking using rnicroplate shaker. After incubation of the plate for 5 minutes, an imnuunoreagent solution (150 μl containing equal volumes of tracer, antiserum, and SPA fluorospheres) was added to each well followed by sealing the plate. After 15-20 h at 23° C., the amount of bound [^125] cAM to the fluoromicrospheres was determined by counting in a microtitre plate scintillation counter for 2 minutes. Comparison of counts with standard curves generated for cAMP using a similar protocol afforded the cAMP present after cell lysis.

A1 adenosine receptor [2] = molecular target: T1, A1 adenosine receptor; test: [35S]GTPγS binding assay, A1-agonist stimulated; type: biochemical, hamster; conditions: agonist stimulated [35S]GTPγS binding, CPA = 100%
Protocol: (§1) Attached cells were washed twice with HBSS (2×10 ml), scraped free of the plate with the aid of a rubber policeman in 5 ml of 50 mM Tris-HCI buffer pH 7.4 at 4° C. and the suspension homogenized for 10 s. The suspension was then centrifuged at 27,000×g for 10 min. The pellet was resuspended in homogenization buffer by vortexing and centrifuged as described above. The final pellet was resuspended in 1 vol of 50 mM Tris-HCI buffer pH 7.4 containing 5 mM MgCl2 for A1 AdoR assays. For the [^35S]GTPγS binding assay the final pellet was resuspended in 50 mM Tris-HCI pH 7.4 containing 5 mM MgCl2, 100 mM NaCl and 1 mM dithiothreitol. This membrane suspension was then placed in liquid nitrogen for 10 min, thawed and used for assays. The protein content was determined by the method of Bradford (1976) using bovine serum albumin as standard.
A1-agonist stimulated [^35S]GTPγS binding was determined by a modification of the method described by Giersckik et al. (1991) and Lorenzen et al. (1993). […] Nonspecific binding was determined by the addition of 10 μM GTPγS. […] Previous reports have shown that agonist stimulated [^35S]GTPγS binding was dependent on the presence of GDP (Gierschik et al., 1991; Lorenzen et al., 1993; Traynor & Nahorski, 1995). […] In saturation experiments, 0.5 nM [^35S]GTPγS was incubated with 0.5-1000 nM GTPγS. At the end of the incubation, each suspension was filtered and the retained radioactivity determined as described above.

A1 receptor = molecular target: T2, A1 receptor (Mesocricetus auratus, UniProt A0A1U8BVR4); test: Competitive binding assay, DDT1 cell membranes, [3H]CCPA; parameters: species or system hamster; conditions: [3H]CCPA 2 nM
T2 construct: endogenous in cells; host or cells: DDT1 (DDT1 MF-2) hamster vas deferens smooth muscle cells
T2 sequence (A0A1U8BVR4 1-326): T1 sequence (A0A1U8BVR4 1-326)
Protocol: Cells were subcultured twice weekly by dispersion in Hank's Balanced Salt Solution (HBSS) without the divalent cations and containing 1 mM EDTA. The cells were then seeded in growth medium at a density of 1.2×10^5 cells per plate and experiments were performed 4 days later at approximately one day preconfluence.
as §1, with “assays.” for “assays. The protein content was determined by the method of Bradford (1976) using bovine serum albumin as standard.”
Competitive Binding Assay Pig striatum were prepared by homogenation in 50 mM Tris buffer (5× volume of tissue mass pH=7.4). After centrifilgation at 19,000 rpm for 25 minutes at 4° C., the supernatant was discarded, and the process was repeated twice. Compositions of this invention were assayed to determine their affinity for the A1 receptor in a pig striatum membrane prep or a DDT, membrane prep. Briefly, 0.2 mg of pig striatal membranes or DDT, cell membranes were treated with adenosine deaminase and 50 mM Tris buffer (pH=7.4) followed by mixing. To the pig membranes was added 2 μL of serially diluted DMSO stock solution of the compounds of this invention at concentrations ranging from 100 microM to 10 nM. The control received 2 microL of DMSO alone, then the antagonist [^3H] 8-cyclopentylxanthine (CPX) for pig striatum or the agonist [^3H] 2-chloro-6-cyclopentyladenosine (CCPA) for DDT, membranes in Tris buffer (50 mnM, pH of 7.4) was added to achieve a final concentration of 2 nM. After incubation at 23 C for 2 h, the solutions were filtered using a membrane harvester using multiple washing of the membranes (3×). The filter disks were counted in scintillation cocktail affording the amount of displacement of triated CPX or by the competitive binding compositions of this invention. In the case of the DDT1 cell membranes, some of the determinations of binding affinity (Ki) were made in the presence of Gpp(NH)p as noted in Table 1 (note: Gpp(NH)p shifts the receptor to a low affinity form). Greater than a 5 point curve was used to generate Ki's and the number of experiments is indicated in the column marked in Table 1 below.

[3] = DDT1 cell membranes, read-out: Ki-DDT1 cell membrane
[4] = in presence of Gpp(NH)p (low affinity form), read-out: Ki - DDT1 cell membrane In presence of Gpp (NH)p

| SMILES | Emax (A1 adenosine receptor [1]) [%] | Emax (A1 adenosine receptor [2]) [%] | Ki (A1 receptor; [3]) [nM] | also measured |
| --- | --- | --- | --- | --- |
| COC(=O)NCC1OC(n2cnc3c(N[C@@H]4CCOC4)ncnc32)C(O)C1O (stereo partly drawn) [Compound 18] | 86 | 77 | – | – |
| COC(=O)C1CCCC1NC(=O)OCC1OC(n2cnc3c(N[C@@H]4CCOC4)ncnc32)C(O)C1O (stereo partly drawn) [Compound 34] | -20 | 17 | 3460 | – |
| O=C(NC1CCCC1OCc1ccccc1)OCC1OC(n2cnc3c(N[C@@H]4CCOC4)ncnc32)C(O)C1O (stereo partly drawn) [Compound 38] | – | – | – | cAMP (A1 adenosine receptor [1]): −25%; GTPγS (A1 adenosine receptor [2]): 1% |
| O=C(NC1CC1c1ccccc1)OC[C@H]1O[C@@H](n2cnc3c(N[C@@H]4CCOC4)ncnc32)[C@H](O)[C@@H]1O (stereo partly drawn) [Compound 40, [(5-{6-[((3R)oxolan-3-yl)amino}purin-9-yl}(3S,2R,4R,5R)-3,4-dihydroxyoxolan-2-yl)methoxy]-N-(2-phenylcyclopropyl)carboxamide] | -14 | -6 | – | – |
| OC1C(COC(=S)NCc2ccccc2)OC(n2cnc3c(N[C@@H]4CCOC4)ncnc32)C1O (stereo partly drawn) [Compound 54] | – | 93 | – | Ki (A1 receptor; [4]): 229 nM |
| OC1C(COC(=S)NC2CCCCC2)OC(n2cnc3c(N[C@@H]4CCOC4)ncnc32)C1O (stereo partly drawn) [Compound 55] | – | 82 | 252 | Ki (A1 receptor; [4]): 962 nM |
| OC1C(COC(=S)NC2CCCC2OCc2ccccc2)OC(n2cnc3c(N[C@@H]4CCOC4)ncnc32)C1O (stereo partly drawn) [Compound 57] | – | 67 | – | cAMP (A1 adenosine receptor [1]): 73% |
| OC1C(COC(=S)NC2CCC2)OC(n2cnc3c(N[C@@H]4CCOC4)ncnc32)C1O (stereo partly drawn) [Compound 58, 2-{1[((3)oxolan-3-yl)amino]purin-9-yl}(4S,2R,3R,5R)-5-{[(cyclobutylamino)thioxomethoxy]methyl}oxolane-3,4-diol] | 78 | 79 | – | – |
| OC1C(COC(=S)NC2CC2)OC(n2cnc3c(N[C@@H]4CCOC4)ncnc32)C1O (stereo partly drawn) [Compound 59] | 115 | 82 | – | – |
| C=CCNC(=S)OCC1OC(n2cnc3c(N[C@@H]4CCOC4)ncnc32)C(O)C1O (stereo partly drawn) [Compound 60, 2-{6-[((3R)oxolan-3-yl)amino]purin-9-yl}(4S,2R,3R,5R)-5-{[(prop-2-enylaminio)thioxomethoxy]methyl}oxolane3,4diol] | – | 77 | – | Ki (A1 receptor; [4]): 239 nM |
| OC1CCCC1NC(=S)OCC1OC(n2cnc3c(N[C@@H]4CCOC4)ncnc32)C(O)C1O (stereo partly drawn) [Compound 63] | 115 | 100 | – | – |
| OC1CCCC1NC(=S)OCC1OC(n2cnc3c(N[C@@H]4CCOC4)ncnc32)C(O)C1O (stereo partly drawn) [Compound 64] | – | – | – | cAMP (A1 adenosine receptor [1]): 110%; GTPγS (A1 adenosine receptor [2]): 99% |
| O=C(NC1CCCC1C(=O)O)OCC1OC(n2cnc3c(N[C@@H]4CCOC4)ncnc32)C(O)C1O (stereo partly drawn) [Compound 65] | 95 | 81 | – | – |
| O=C(O)CCNC(=O)OCC1OC(n2cnc3c(N[C@@H]4CCOC4)ncnc32)C(O)C1O (stereo partly drawn) [Compound 67] | – | 59 | 2220 | – |
| O=C(NCC1OC(n2cnc3c(N[C@@H]4CCOC4)ncnc32)C(O)C1O)OC1CCCC1 (stereo partly drawn) [Compound 70] | 79 | 76 | – | – |
| COC(=S)NCC1OC(n2cnc3c(N[C@@H]4CCOC4)ncnc32)C(O)C1O (stereo partly drawn) [Compound 71] | 94 | 98 | – | – |
| OC1C(CNC(=S)OC2CCCC2)OC(n2cnc3c(N[C@@H]4CCOC4)ncnc32)C1O (stereo partly drawn) [Compound 72, 2-{6-[((3R)oxolan-3-yl)amino]purin-9-yll(4S,2R,3R,5R)5-{[cyclopentyloxythioxomethyl)amino]methyl}oxolane3,4-diol] | 103 | 93 | – | – |
| O=C(NC1CCCC1)SCC1OC(n2cnc3c(NC4CCOC4)ncnc32)C(O)C1O [Compound 73, [(5-{6-[((3R)oxolan-3-yl)amino]purin-9-yl}(2S,3S,4R,5R)3,4-dihydroxyoxolan-2-yl)methythio]-N-cyclopentylcarboxamide] | – | 109 | 183 | – |
| CNC(=S)SCC1OC(n2cnc3c(NC4CCOC4)ncnc32)C(O)C1O [Compound 74, 2-{6[((3R)oxolan-3-yl)ainio]purin-9yl}(4S,5S,2R,3R)5-{[(methylamniio)thioxomethylthio]methyl}oxolane3,4diol] | 82 | 95 | – | – |
| O[C@@H]1[C@H](O)[C@@H](CSC(=S)NC2CCCC2)O[C@H]1n1cnc2c(N[C@@H]3CCOC3)ncnc21 [Compound 75, 2-{6-[((3R)oxolan-3-yl)amino]purin-9-yl}(4S,5S,2R,3R)-5-{[(cyclopentylamino)thioxomethylthio]methyl}oxolane-3,4-diol] | – | 91 | 62 | – |
| CNC(=S)NC[C@H]1O[C@@H](n2cnc3c(N[C@@H]4CCOC4)ncnc32)[C@H](O)[C@@H]1O [Compound 77, 2-{6[((3R)oxolan-3-yl)amino]purin-9-yl}(4S,2R,3R,5R)5-({[(methylamino)thioxomethyl]amino}methyl)oxolane-3,4diol] | – | 101 | 113 | – |
| OC1C(CNC(=S)NC2CCCC2)OC(n2cnc3c(NC4CCOC4)ncnc32)C1O [Compound 78, 2-{6-[((3R)oxolan-3-yl)amino]purin-9-yl}(4S,2R,3R,5R)-5-({[(cyclopentylamnino)thioxomethyl]amino}methyl)oxolane3,4diol] | – | 95 | 357 | – |
| O=c1occn1CC1OC(n2cnc3c(N[C@@H]4CCOC4)ncnc32)C(O)C1O (stereo partly drawn) [Compound 80] | 64 | 80 | – | – |
